Here are results for 1 molecule from US11166960B2, “Modified release preparations containing oxcarbazepine and derivatives thereof” (Supernus Pharmaceuticals, Inc., priority 2006, dated 2021).

The nature of data set [1]: Solubility of oxcarbazepine in the presence of excipients. The format is physicochemical. Here is the method:
The solubility of oxcarbazepine in the presence of excipients was evaluated as follows: Excipients were dissolved in phosphate buffer to make solutions with concentrations shown in Table 3. One gram of oxcarbazepine was then mixed with 19 gm of the excipient solution. The mixture was rocked overnight at room temperature and then filtered using 0.22 μm filter. The filtrates were analyzed by HPLC.

Test in data set [2]: as above
The format is physicochemical. The note with it: de-ionized water, thermodynamic from solid.

Read-outs that look alike come from different tables or passages of the source.

A word on the solubility: it is how much of the substance goes into solution per volume. Take `NC(=O)N1c2ccccc2CC(=O)c2ccccc21` [Oxcarbazepine]: the solubility in data set [1] (Kollidon 17 1% w/w in phosphate buffer) was 171.7 µg/mL; in data set [1] (aqueous with cosolvent or surfactant or cyclodextrin, thermodynamic from solid, Hydroxypropyl betacyclodextrin (HBCD) 5% w/w in phosphate buffer, read-out: Solubility), 1020 µg/mL; in data set [1] (aqueous with cosolvent or surfactant or cyclodextrin, thermodynamic from solid, SLS/Stearic Acid/PEG400 5, 1, 1% w/w in phosphate buffer, read-out: Solubility), 3280 µg/mL; in data set [1] (phosphate buffer (control, no excipient), aqueous buffer, thermodynamic from solid, Phosphate Buffer Control, room temperature overnight, read-out: Solubility) it was 401 µg/mL; in data set [1] (phosphate buffer with 1% w/w Cremophor RH40, aqueous with cosolvent or surfactant or cyclodextrin, thermodynamic from solid, Cremophor RH40 1% w/w in phosphate buffer, read-out: Solubility), 314 µg/mL; in data set [1] (phosphate buffer with 1% w/w SLS and 1% w/w HBCD, aqueous with cosolvent or surfactant or cyclodextrin, thermodynamic from solid, SLS/HBCD 1, 1% w/w in phosphate buffer, read-out: Solubility) it was 349 µg/mL. Further, the solubility in data set [1] (phosphate buffer with 5% w/w SLS and 1% w/w PEG400, aqueous with cosolvent or surfactant or cyclodextrin, thermodynamic from solid, SLS/Polyethylene Glycol 400 (PEG400) 5, 1% w/w in phosphate buffer, read-out: Solubility) was found to be 3050 µg/mL; in data set [1] (phosphate buffer with 5% w/w docusate sodium, aqueous with cosolvent or surfactant or cyclodextrin, thermodynamic from solid, Docusate Sodium 5% w/w in phosphate buffer, read-out: Solubility), 6550 µg/mL; in data set [1] (phosphate buffer with 5% w/w sodium lauryl sulfate (SLS), aqueous with cosolvent or surfactant or cyclodextrin, thermodynamic from solid, Sodium Lauryl Sulfate (SLS) 5% w/w in phosphate buffer, read-out: Solubility), 4110 µg/mL; in data set [2], 273 µg/mL.
